Source: patent US4469701A, “Pyrrolid-3-en-2-ones and pharmaceutical methods of use thereof” (Stauffer Chemical Company, priority 1983, dated 1984)

Columns and labels:
mice [1] = assay: Central anticholinergic: oxotremorine tremors in mice; settings: Mus musculus, ip, 1 h, read-out: ED-100, central anticholinergic
[2] = system: hypercholesterolemic mice; assay: HP-betalipoprotein: serum heparin precipitating lipoprotein (HPL); assay type: in vivo, mouse; settings: hypercholesterolemic mice; for ED100: Mus musculus, po, reference compounds, read-out: ED-100, HP-betalipoprotein
Source text: Reduction of serum heparin precipitating lipoprotein (HPL) concentrations (corresponding to low density lipoprotein and very low density lipoprotein fractions) in the same hypercholesterolemic mice from Test 6 above by more than 20% (>20) from control animals indicates activity.

[3] = system: hypercholesterolemic mice; assay: Hypocholesterolemic: serum cholesterol in hypercholesterolemic mice; assay type: in vivo, mouse; settings: Mus musculus, hypercholesterolemic mice; for ED100: po, reference compounds, read-out: ED-100, hypocholesterolemic; for inhibition in vivo at 200 mg/kg: 2 oral doses of 200 mg/kg 20 hr. apart, significance >20, read-out: C = Hypocholesterolemic: percent decrease in serum cholesterol
Protocol: Mice made hypercholesterolemic by being fed a high cholesterol-cholic acid diet for 7 days were dosed on the sixth and seventh days, p.o. After fasting overnight, reduction in serum cholesterol concentration by more than 15% (>15) from hypercholesterolemic control mice indicates activity.
^4 C = Hypocholesterolemic. Percent decrease in serum cholesterol in
hypercholesterolemic mice given 2 oral doses of 200 mg/kg drug candidate

mice [4] = assay: Acute toxicity / autonomic effects observation; settings: mouse, in vivo
Protocol: Mice were dosed at 300 mg/kg, per oral (p.o.) and […], interperitoneal (i.p.) for observation of any acute toxic symptoms or autonomic effects during the subsequent 72 hours. If none were noted, pharmacological evaluation proceeded employing doses and concentrations for each test based on appropriate multiples of doses required by suitable reference compounds. If acute toxicity was observed initially, the minimal toxic dose was determined and pharmacological screening doses were reduced proportionately.

mice [5] = assay: Antiarrhythmic: chloroform-induced cardiac arrhythmia in mice; assay type: in vivo, mouse; settings: for A = Antiarrythmic: mouse hearts fibrillating (of 3): 15 min. after a 200 mg/kg intraperitoneal dose, significance <2
Protocol: ^2 A = Antiarrythmic. Less than 2/3 mouse hearts fibrillating 15 min.

rats [6] = assay: Bradycardia: heart rate by EKG in rats; assay type: in vivo, rat; settings: for inhibition in vivo at 5 mg/kg: Rattus norvegicus, 0.75 h, 45 min. after a 5 mg/kg oral dose in rats, significance >10, read-out: B = Bradycardiac: percent decrease in heart rate
Protocol: […] Decrease in heart rate by more than 10% (>10) is considered a bradycardic effect.
Percent decrease in heart rate 45 min. after a 5
mg/kg oral dose in rats.

[7] = system: spontaneously hypertensive rats (SHR); assay: Antihypertensive: blood pressure (tail cuff) in spontaneously hypertensive rats (SHR); assay type: in vivo, rat; settings: for inhibition in vivo at 100 mg/kg: Rattus norvegicus, 6 hr. after a 100 mg/kg oral dose, significance >10, read-out: Antihypertensive: percent decrease in systolic blood pressure in spontaneously hypertensive rats
Protocol: Blood pressure was measured indirectly (tail cuff) in unanesthetized, unheated spontaneously hypertensive rats (SHR) before and 2, 4, and 6 hours after p.o. dosing. Reduction in mean pressure by more than 10% (>10) at any two consecutive measurement times after dosing indicates antihypertensive activity.

rats [8] = assay: Antiulcer: stress induced gastric ulcers in rats; assay type: in vivo, rat; settings: for inhibition in vivo at 50 mg/kg: 4 hr. following a 50 mg/kg oral dose in rats, significance >60, read-out: U = Antiulcerative: percent inhibition of stress ulcers
Protocol: Fasted rats were dosed, p.o., 30 minutes before immobilization in wire mesh and partial immersion in water for 4 hours. Inhibition of the resulting stress induced gastric ulcers by more than 60% (>60) indicates activity.
^6 U = Antiulcerative. Percent inhibition of stress ulcers 4 hr.
following a 50 mg/kg oral dose in rats.

rats [9] = assay: Antiedema: carrageenan paw edema in rats; assay type: in vivo; settings: Rattus norvegicus, po, 3 h, read-out: ED-100, antiedema
Protocol: Rats are dosed p.o. one hour before intraplantar injection of carrigeenan (0.1 ml, 1% susp.). Inhibition of paw edema by more than 30% (>30) 3 hours after carriegeenan injection indicates acute anti-edema activity.

mice [10] = assay: Pupil dilation in mice; assay type: in vivo, mouse; settings: i.p.
Protocol: If the pupil diameter of mice exceeds 1.0 mm (>1) in bright light 30 minutes after dosing, i.p., ganglionic blockage or anti-cholinergic activity is indicated in the absence of adrenergic action. The following are reference compounds and the doses thereof.

glucose-loaded mice = assay: Hypoglycemic, glucose-loaded mice; assay type: in vivo, mouse; settings: glucose loaded mice, 100 mg/kg oral dose; significance >20
Protocol: Reduction in blood glucose concentration by more than 20% (>20) in fasted, glucose-loaded (1 gm/kg) mice one hour after dosing, p.o., indicates activity (test compound administered at same time as glucose load).
^5 H = Hypoglycemic. Percent decrease in serum glucose concentration
in glucose loaded mice hr. following a 100 mg/kg oral dose.

[11] = Anticholinergic properties (overall statement); settings: in vivo
[12] = p.o., rats, reference compounds

With CCN(CC)CCNC(=O)c1cc(Cl)c(N)cc1OC [metoclopramide] the ED100 (mice [1]) was > 100 mg/kg.
Molecule CC(C)(Oc1ccc(CCNC(=O)c2ccc(Cl)cc2)cc1)C(=O)O [bezafibrate, reference compound] has an ED100 [2] of 200 mg/kg and an ED100 [3] of 200 mg/kg.
With CC1(C)CCCC(C)(C)N1CC1=CC(=O)N(c2ccc(F)cc2)C1 [Compound 5] the “Autonomic effect / autonomic inhibition” value (mice [4]) was “absence of evidence of autonomic inhibition”, the “A = Antiarrythmic: mouse hearts fibrillating (of 3)” value (shortened to “A = Antiarrythmic”) (mice [5]) was 0 and the “Antiarrhythmic effect, in words” value (mice [5]; mouse, in vivo) was “noted at antihypertensive doses”. The inhibition in vivo at 5 mg/kg (rats [6]) was 24%, the inhibition in vivo at 100 mg/kg [7] was 26% and the “Dose with borderline antihypertensive result” value ([7]; p.o.) was 5 mg/kg. The inhibition in vivo at 50 mg/kg (rats [8]; Rattus norvegicus) was 75%, the “Antiulcer effect, in words” value (rats [8]; rat, in vivo) was “noted at antihypertensive doses” and the inhibition in vivo at 200 mg/kg [3] was 0%.
CC/C(=C(/CC)c1ccc(O)cc1)c1ccc(O)cc1 [diethylstilbestrol, reference compound] gave an ED100 [2] of 200 mg/kg and an ED100 [3] of 200 mg/kg.
C[C@]12CCC(=O)C=C1CC[C@@H]1[C@@H]2[C@@H](O)C[C@@]2(C)[C@H]1CC[C@]2(O)C(=O)CO [hydrocortisone] gave an ED100 (rats [9]) of 25 mg/kg.
For O=C(O)c1cc(-c2ccc(F)cc2F)ccc1O [diflunisal], the ED100 (rats [9]; [12]) was 25 mg/kg.
In the case of CC(C)Cc1ccc(C(C)C(=O)O)cc1 (stereo not shown) [ibuprofen], the ED100 (rats [9]; [12]) is reported as 25 mg/kg.
With Cc1cccc(N2CC(CN3C(C)(C)CCCC3(C)C)=CC2=O)c1 [Compound 4] the HPL/cholesterol ratio ([2]; 400 mg/kg, p.o.) was “marked reduction”, the “A = Antiarrythmic” value (mice [5]) was 2 and the “Dose with borderline antiarrhythmic result” value (mice [5]; i.p., mice, chloroform arrhythmia) was 100 mg/kg. For the same molecule, the inhibition in vivo at 5 mg/kg (rats [6]) was 19%, the Pupil dilation (mice [10]; 50 mg/kg) was “significantly dilated” and the inhibition in vivo at 100 mg/kg [7] was 23%. For the same molecule, the “Antihypertensive activity, onset / comparison in words” value ([7]; p.o.) was “generally comparable to that of Compound 3”, the “Dose at which antihypertensive effects were decreasing” value ([7]; p.o.) was 10 mg/kg and the inhibition in vivo at 50 mg/kg (rats [8]; Rattus norvegicus) was 75%. For the same molecule, the inhibition in vivo at 200 mg/kg [3] was 25%.
For CC1(C)CCCC(C)(C)N1CC1=CC(=O)N(c2cccc([N+](=O)[O-])c2)C1 [Compound 11], the “Autonomic effect / autonomic inhibition” value (mice [4]) was “absence”, the “A = Antiarrythmic” value (mice [5]) was 3 and the inhibition in vivo at 5 mg/kg (rats [6]) was 5%. The “Bradycardic effects, in words” value (rats [6]; rat, in vivo) was “absence of bradycardia”, the inhibition in vivo at 100 mg/kg [7] was 27% and the “Antihypertensive activity, onset / comparison in words” value ([7]; p.o.) was “Mild, rather slow onset”. For the same molecule, the inhibition in vivo at 50 mg/kg (rats [8]; Rattus norvegicus) was 25% and the inhibition in vivo at 200 mg/kg [3] was 0%.
With CCN1CCCC1CNC(=O)c1cc(S(N)(=O)=O)ccc1OC (stereo not shown) [sulpiride] the ED100 (mice [1]) was > 100 mg/kg.
With CC1(C)CCCC(C)(C)N1CC1=CC(=O)N(c2ccccc2)C1 [Compound 6] the “Autonomic effect / autonomic inhibition” value (mice [4]) was “little evidence of autonomic effect”, the “A = Antiarrythmic” value (mice [5]) was 3 and the inhibition in vivo at 5 mg/kg (rats [6]) was 20%. The inhibition in vivo at 100 mg/kg [7] was 18%, the inhibition in vivo at 50 mg/kg (rats [8]; Rattus norvegicus) was 75% and the “H = Hypoglycemic: percent decrease in serum glucose concentration” value (glucose-loaded mice) was 29%. The inhibition in vivo at 200 mg/kg [3] was 12%.
In the case of CC1(C)CCCC(C)(C)N1CC1=CC(=O)N(c2ccccc2Cl)C1 [Compound 9], the Anticholinergic properties/effects [11] is reported as “not likely anticholinergic in nature”, the “A = Antiarrythmic” value (mice [5]) is reported as 0 and the inhibition in vivo at 5 mg/kg (rats [6]) is reported as 18%. The “Ganglionic blockade as cause of pupillary dilation” value (mice [10]; 25 mg/kg) was “does not appear to reflect ganglionic blockade”, the Pupil dilation (mice [10]; 25 mg/kg) was “Pupillary dilation was again noted” and the inhibition in vivo at 100 mg/kg [7] was 31%. The inhibition in vivo at 50 mg/kg (rats [8]; Rattus norvegicus) was 100%, the “H = Hypoglycemic: percent decrease in serum glucose concentration” value (glucose-loaded mice) was 27% and the inhibition in vivo at 200 mg/kg [3] was 0%.
N[C@H](Cc1cc(I)c(Oc2cc(I)c(O)c(I)c2)c(I)c1)C(=O)O [D-thyroxine, reference compound] showed an ED100 [2] of 10 mg/kg and an ED100 [3] of 10 mg/kg.
For CC1(C)CCCC(C)(C)N1CC1=CC(=O)N(c2cccc(SC(F)(F)F)c2)C1 [Compound 2, N-[3'-trifluoromethylthiophenyl]-4-[2",2",6",6"tetramethylpiperidino]methylpyrrolid-3-en-2-one], the “Acute toxicity / toxic effects” value (mice [4]) was “apparent absence”, the “Autonomic effect / autonomic inhibition” value (mice [4]) was “apparent absence of autonomic effect” and the “A = Antiarrythmic” value (mice [5]) was 3. It also gave an inhibition in vivo at 5 mg/kg (rats [6]) of 6%, an inhibition in vivo at 100 mg/kg [7] of 14% and an inhibition in vivo at 50 mg/kg (rats [8]; Rattus norvegicus) of 38%. For the same molecule, the inhibition in vivo at 200 mg/kg [3] was 0%.
In the case of CC(C(=O)O)c1cccc(C(=O)c2ccccc2)c1 (stereo not shown) [ketoprofen], the ED100 (rats [9]) is reported as 5 mg/kg.
For CN(C)CCCN1c2ccccc2Sc2ccc(Cl)cc21 [chlorpromazine, reference compound], the ED100 (mice [1]) was 2.5 mg/kg and the ED100 (rats [8]; Rattus norvegicus, po, read-out: ED-100, antiulcer) was 20 mg/kg.
